Laboratory results: patent EP0046707B1, “Derivatives of 4-aminobutyric acid and the medicines especially active on the central nervous system containing them” (priority 1980, dated 1982)
Where two headings read alike, the source gives them in different places.

Assays:
souris [1] = assay: Actography (locomotor activity, two perpendicular light beams); assay type: in vivo; conditions: mouse, 500 mg/kg oral; grouping in words
Experimental: La mesure de l'actographie est effectuée chez la souris 45 min. après l'administration du produit. On opère sur des lots de 12 animaux, chacun d'eux étant isolé pendant 10 min. avant la mesure. Le comptage des scores est effectué par coupure de deux faisceaux lumineux perpendiculaires.
Dans le tableau IV ci-après sont rassemblés les résultats obtenus avec divers produits de l'invention administrés à la dose de 500 mg/kg par voie orale. Les résultats sont exprimés en pourcentage de variation des scores obtenus par rapport à des animaux témoins non traités.
On peut constater que les produits se répartissent en deux groupes : • ceux provoquant de l'hypomotilité tels que 40217, 40039, 40271, 40272, 40319; dans le cas où les animaux traités présentent une perte du réflexe de retournement, ce qui traduit l'effet de narcose propre du produit, on a noté PRR; • ceux provoquant de l'hypermotilité, tels que 40142, 40398, 40397, 40404, 40253, 40355, 40209; pour préciser les résultats obtenus, l'étude pour deux produits a été reprise en effet-dose suivant le même protocole. • Les résultats obtenus figurent dans le tableau V ci-après.

souris [2] = assay: Potentiation of pentobarbital narcosis (loss of righting reflex); assay type: in vivo; conditions: mouse; for Pourcentage d'animaux en narcose à 500 mg/kg p. os: 500 mg/kg p. os 1 h before pentobarbital 20 mg/kg i.p.; for ED50: po, p. os 1 h before pentobarbital 20 mg/kg i.p., unit not given for DE 50, read-out: dose (p. os) provoquant 50 % d'induction de narcose (DE 50)
Experimental: Les produits à étudier ont été administrés per os chez la souris à la dose de 500 mg/kg, 1 h avant le pentobarbital injecté par voie intrapéritonéale à raison de 20 mg/kg.
On détermine le pourcentage des animaux ayant perdu le réflexe de retournement. Les résultats sont exprimés en pourcentage ou, dans quelques cas, en dose efficace 50 (DE 50) ou dose provoquant la narcose chez 50 % des animaux traités.
Les résultats figurent dans le tableau VI ci-après.

[3] = Acute toxicity (mortality over 24 h); conditions: in vivo, po, mouse, observed 24 h
Experimental: Les produits à étudier sont administrés par voie orale aux doses de 500 et 1 000 mg/kg à des lots de souris. On observe les souris pendant 24 h et note la mortalité.
Les résultats exprimés en pourcentage de mortalité figurent dans le tableau XI ci-après.

souris [4] = assay: Anticonvulsant effect against bicuculline-induced tonic seizures; assay type: in vivo; conditions: 1 h; mouse, bicuculline 1 mg/kg i.v. 60 min after oral dosing; read-out: Dose efficace médiane de protection des crises toniques (DE 50) Bicuculline
Experimental: (§1) L'effet anticonvulsivant a été déterminé vis-à-vis des crises convulsives provoquées par l'électrochoc ou par la bicuculline.
La bicuculline est administrée à la souris par voie intraveineuse à raison de 1 mg/kg, 60 min après le produit à étudier donné per os. On note l'effet protecteur obtenu vis-à-vis des crises toniques.
(§2) En opérant sur divers lots d'animaux avec des doses différentes du produit à étudier, on peut déterminer la dose efficace médiane (DE 50).
(§3) Les résultats sont rassemblés dans le tableau VIII ci-après et montrent les propriétés anticonvulsivan- tes nettes des produits étudiés.

souris [5] = assay: Anticonvulsant effect against electroshock seizures; assay type: in vivo; conditions: 1 h; mouse, electroshock 12.5 V for 0.5 s, 60 min after oral dosing; read-out: Dose efficace médiane de protection des crises toniques (DE 50) Electrochoc
Experimental: as §1
L'électrochoc (12,5 V pendant 0,5 s) est effectué chez la souris 60 min après l'administration du produit par voie orale.
as §2, §3

[6] = tested on: acide homovanillique (HVA); assay: Effect on central dopaminergic activity (homovanillic acid accumulation in whole brain); assay type: in vivo, souris; conditions: mouse whole brain, 500 mg/kg p.os
Experimental: L'effet des produits sur l'activité dopaminergique centrale a été étudié par la mesure de l'accumulation de l'acide homovanillique sur une période de 24 h après l'administration des produits chez la souris.
Le taux d'acide homovanillique (HVA) est évalué dans le cerveau entier, les animaux reçoivent une injection de probenecid (200 mg/kg i.p.) 1 h 30 min avant le sacrifice (lot de 10 animaux).

[7] = 500 mg/kg p. os, read-out: p. cent de mortalité à 500 mg/kg p. os
[8] = 1000 mg/kg p. os, read-out: p. cent de mortalité à 1000 mg/kg p. os

Structure (SMILES)	hypomotilité / hypermotilité (souris [1])	Pourcentage d'animaux en narcose à 500 mg/kg p. os (souris [2])	mortality at 24 h [3, 7]	mortality at 24 h [3, 8]	ED50 (souris [4])	other results
CCCCNC(=O)CCC(C)NC(=O)CCC (stereo not drawn) [40 397]	hypermotilité	100%	0%	20%	–	–
CCCCNC(=O)CCCNC(=O)C(C)(C)C [40 254]	–	50%	0%	20%	< 500 mg/kg	–
CCCNC(=O)CCCNC(=O)CCC [40 398]	hypermotilité	–	0%	0%	–	ED50 (souris [2]): 350 mg/kg
CCCC(=O)NCCCC(N)=O [40 401, Dioxo-2,7 diaza-1,6 décane]	–	0%	0%	0%	–	–
CCCCNC(=O)C(C)CCNC(=O)CCC (stereo not drawn) [40 404]	hypermotilité	40%	0%	0%	–	–
CCCC(=O)NCCCC(=O)N(C(C)CC)C(C)CC (stereo not drawn) [40 216]	–	100%	0%	100%	–	–
CCCC(=O)NCCCC(=O)NCC [40 463]	–	–	0%	0%	380 mg/kg	–
CCCCCN(CCCCC)C(=O)CCCNC(=O)CCC [40 984]	–	60%	0%	100%	–	–
CCCCN(CCCC)C(=O)CCNC(=O)C(C)(C)C [40 319]	hypomotilité	–	0%	0%	–	ED50 (souris [2]): 175 mg/kg
CCCC(=O)NCCCC(=O)NC1CCCC1 [40 209]	hypermotilité	–	0%	20%	–	–
CCCNC(=O)CCCNC(=O)CC(C)C [40 418]	–	–	0%	0%	300 mg/kg	–
CCCC(=O)NCCCC(=O)N(CCC)CCC [40 217]	hypomotilité	0%	0%	0%	–	–
CCCCNC(=O)CC(C)NC(=O)CCC (stereo not drawn) [40 395]	–	70%	0%	20%	–	–
CCCCNC(=O)CCCNC(=O)CC(C)C [40 417]	–	–	0%	20%	–	–
CCCCNC(=O)CCNC(=O)C(C)(C)C [40 318]	–	90%	–	–	–	–
CCCCNC(=O)CCCNC(=O)C(C)C [40 467]	–	–	0%	0%	150 mg/kg	ED50 (souris [5]): < 500 mg/kg
CCCCN(CCCC)C(=O)CCCNC(=O)C(C)C [40 462]	–	30%	0%	0%	150 mg/kg	ED50 (souris [5]): 500 mg/kg
CCCCNC(=O)CCNC(=O)CCC [40 253]	hypermotilité	50%	0%	0%	< 500 mg/kg	ED50 (souris [5]): 500 mg/kg
CCCCNC(=O)CCCNC(=O)CCC [40 142]	hypermotilité	–	0%	0%	325 mg/kg	ED50 (souris [2]): 297 mg/kg; ED50 (souris [5]): 150 mg/kg; Taux de HVA en ([6]; 2 h): 379 ± 11 ng/g; Taux de HVA en ([6]; 4 h): 793 ± 52 ng/g; Taux de HVA en ([6]; 6 h): 571 ± 23 ng/g; Taux de HVA en ([6]; 24 h): 290 ± 16 ng/g; Taux de HVA en ([6]; time 0 (baseline)): 521 ± 29 ng/g
CCCC(=O)NCCCC(=O)NC(C)C [40 466]	–	30%	0%	0%	–	–
CCCCCCNC(=O)CCCNC(=O)CCC [40 947]	–	–	0%	0%	250 mg/kg	ED50 (souris [5]): 400 mg/kg
CCCC(=O)NCCCC(=O)NC(C)(C)CC [40 989]	–	50%	0%	80%	–	–
CCCCN(CCCC)C(=O)CCNC(=O)CCC [40 271]	hypomotilité	100%	0%	100%	< 500 mg/kg	ED50 (souris [5]): 500 mg/kg
CCCC(=O)NCCCC(=O)NCc1ccccc1 [40 316]	–	70%	0%	0%	–	–
CCCCNC(=O)CCCNC(=O)C1CC1 [40 443]	–	40%	0%	0%	–	–
CCCCCNC(=O)CCCNC(=O)CCC [40 521]	–	–	–	–	250 mg/kg	ED50 (souris [5]): 180 mg/kg
CCCC(=O)NCCCC(=O)N1CCOCC1 [40 206]	–	0%	0%	0%	–	–
CCCCN(CCCC)C(=O)CCCNC(=O)C(C)(C)C [40 272]	hypomotilité	72%	0%	0%	–	–
